# In US9839632B2, “Methods and compositions using 4-amino-2-(2,6-dioxo-piperidine-3-yl)-isoindoline-1,3-dione for treatment and management of central nervous system cancers” (CELGENE CORPORATION, priority 2013, dated 2017):
# Read-outs that look alike come from different tables or passages of the source.
# Key:
# [1] = Blood and brain microdialysis (unbound concentrations) in male CD-IGS rats after single p.o. administration; type: in vivo, rat; details: for Kp / Tmax: rat
# Description: Microdialysis: A total of 3 male CD-IGS rats were used. Stomach-cannulated CD-IGS rats (male, weight range: 250-300 g) supplied by Charles River Laboratories were used in this study. Following surgery, all animals were housed in BASi Raturn® containment systems with standard bedding material. Rat chow and water were available ad libitum, and all animals were kept in an ambient temperature room under a 6 am to 6 pm 12-hour lighting schedule.
# Animal surgeries consisted of implanting a CMA/20 14/10PC vascular microdialysis probe (Part #8309571, CMA Microdialysis, North Chelmsford, Mass.) in the jugular vein, according to an IACUC protocol. Each animal was then stereotaxically implanted with an intracerebral guide directed toward the top of the striatum (A/P: 0.7, L/M: −3.0, DN: −3.0; from bregma), according to a rat stereotaxic atlas. Paxinos G. F. K., The mouse brain in stereotaxic coordinates (Academic Press, San Diego, Calif.) (2001). A BASi BR-4 brain microdialysis probe (Part # MD-2204, BASi, West Lafayette, Ind.) was inserted prior to recovery, and the probes were slowly perfused (0.5 μL/min) with either sterile lactated Ringer's (brain) or Dulbecco's phosphate-buffered saline (D-PBS; blood). Animals were allowed to recover for at least 24 hours prior to dosing. On the day of dosing, the blank perfusate was replaced with perfusate containing the probe calibrator, and flow was set to 1.25 μl/min. 4-amino-2-(2,6-dioxo-piperidine-3-yl)-isoindoline-1,3-dione was administered as a single p.o. administration via the stomach cannula, at 50 mg/kg (5 mL/kg) in a 0.5% A carboxymethylcellulose/0.25% Tween® 80 suspension formulation.
# Microdialysate was collected in a cooling fraction collector, set at 4° C. (Eicom # EFC-82, EFR-82, Eicom, San Diego, Calif.) at intervals of 25 minutes for 10 hours after dosing. To calculate area-under-the-curve (AUC), the corrected concentration of each sample was multiplied by the interval over which the sample was collected; in this case 25 minutes, and divided by 60 minutes per hour. The sum of these values represented the total AUC value over the specified time range. To generate graphs, the concentration at each time point was plotted at the mid-point of each collection interval. Microdialysates were collected at the specified time points and analyzed for 4-amino-2-(2,6-dioxo-piperidine-3-yl)-isoindoline-1,3-dione concentration using a liquid chromatography-tandem mass spectrometry (LC-MS/MS) assay, within 12 hours. Interim storage was at 4° C.
# Mass Spectral Analysis: Microdialysate samples were injected directly into the LC-MS/MS system without processing. Chromatographic separation was achieved using a Phenomenex Synergi C18 column (50×4.6 mm, 4 μm) with gradient elution of 0.1% formic acid in water and 0.1% formic acid in acetonitrile. Detection and quantitation were performed using positive electrospray in multiple reaction-monitoring (“MRM”) modes on a Waters Micromass Ultima tandem mass spectrometer. Transition ions monitored were m/z 274.1 to m/z 84.3 for the analyte and m/z 288.0 to m/z 98.0 for the probe calibrator CC-6032. Calibration was performed using weighted (1/x^2) quadratic regression of peak area. Two calibration curves for 4-amino-2-(2,6-dioxo-piperidine-3-yl)-isoindoline-1,3-dione in PBS and lactated ringers solution were constructed using standards at concentrations of 1.28, 2.56, 5.12, 10.2, 25.6, 64.0, 160, 400, 1000, and 2000 ng/mL. A quadratic regression model with a weighting of 1/(x^2) was used for the regression of calibration curves. Concentrations below the limit of quantitation (“BLOQ”) were treated as zero for calculations.
# [2] = system: primary murine peritoneal macrophages; test: Polarization of IL4-treated primary murine peritoneal macrophages (immunofluorescence); type: cell-based; details: IL-4 20 ng/ml 48 hours then 10 ug/ml 48 hours
# Method: (§1) Treatments: In experiments in which IL-4 was used to induce M2 polarization of macrophages, cells were treated with IL-4 (20 ng/ml) for 48 hours followed by treatment with 4-amino-2-(2,6-dioxo-piperidine-3-yl)-isoindoline-1,3-dione (10 ug/ml) or DMSO control for 48 hours. In triple cell culture experiments with lymphoma cells, macrophages, and NK cells, the treatment was with either DMSO or 4-amino-2-(2,6-dioxo-piperidine-3-yl)-isoindoline-1,3-dione (10 ug/ml) for 48 hours.
# Immunofluorescence for analysis of macrophage polarization in cell culture experiments: Live cells were fixed in 10% formalin for 30 minutes at room temperature followed by permeabilization with PBS-0.2% Triton X-100 for 2 min. After blocking with PBS-5% goat serum-0.02% Triton X-100 for 30 minutes at 37° C., the cells were incubated overnight at 4° C. with rat monoclonal F4/80 antibody (for primary microglia cells, 1:200 Abcam), rat monoclonal CD11b (for U937, 1:200 Biolegend), rabbit polyclonal Ym1 antibody (for primary microglia cells and primary peritoneal macrophages, 1:200, Stemcell Technologies, Vancouver, Canada), rabbit polyclonal FXIII A antibody (for U937, 1:200, Abcam), mouse monoclonal p-STAT1 antibody (1:200, Abcam), rabbit polyclonal p-STAT6 antibody (1:200, Abcam) or rabbit iNOS antibody (1:200, Calbiochem). […]
# [3] = system: primary murine microglia cells cocultured with Raji lymphoma cells; test: Polarization of primary murine microglia cocultured with Raji lymphoma cells with or without primary murine NK cells; type: cell-based; details: for M2 polarization of microglia cells (FXIIIA, pSTAT6): coculture with Raji lymphoma cells, without NK cells; for polarization status of microglia cells (iNOS, pSTAT1): triple culture with Raji lymphoma cells and primary murine NK cells, 10 ug/ml 48 hours
# Method: as §1
# Immunofluorescence for analysis of macrophage polarization in cell culture experiments: Live cells were fixed in 10% formalin for 30 minutes at room temperature followed by permeabilization with PBS-0.2% Triton X-100 for 2 min. After blocking with PBS-5% goat serum-0.02% Triton X-100 for 30 minutes at 37° C., the cells were incubated overnight at 4° C. with rat monoclonal F4/80 antibody (for primary microglia cells, 1:200 Abcam), rat monoclonal CD11b (for U937, 1:200 Biolegend), rabbit polyclonal Ym1 antibody (for primary microglia cells and primary peritoneal macrophages, 1:200, Stemcell Technologies, Vancouver, Canada), rabbit polyclonal FXIII A antibody (for U937, 1:200, Abcam), mouse monoclonal p-STAT1 antibody (1:200, Abcam), rabbit polyclonal p-STAT6 antibody (1:200, Abcam) or rabbit iNOS antibody (1:200, Calbiochem). After washing, cells were incubated with the Alexa Fluor 594 Goat anti-Rat IgG secondary antibody (1:1000, Life Technologies) and FITC Donkey anti-rabbit IgG secondary antibody (1:1000, Life technology) or FITC Goat anti-mouse IgG secondary antibody (1:1000, Sigma) at 37° C. for 45 minutes. Finally, Vectashield H-1200 mounting medium with DAPI (Vector Laboratories) was used to stain the nuclei. Images were obtained on a Zeiss LSM 510 META confocal microscope.
# [4] = microdialysis, male CD-IGS rats, single p.o. 50 mg/kg, n = 3, listed as 4-amino-2-(2,6-dioxo-piperidine-3-yl)-isoindoline-1,3-dione, 50 mg/kg
# [5] = microdialysis, male CD-IGS rats, single p.o. 50 mg/kg, n = 3, listed as pomalidomide, 50 mg/kg
# [6] = listed as 4-amino-2-(2,6-dioxo-piperidine-3-yl)-isoindoline-1,3-dione
structure (smiles),measurement,setting,value
"Nc1cccc2c1C(=O)N(C1CCC(=O)NC1=O)C2=O (stereo not shown) [Pomalidomide, 4-amino-2-(2,6-dioxo-piperidine-3-yl)-isoindoline-1,3-dione]",Kp,"[1]; male, CD-IGS, oral, 50 mg/kg, crossed the blood brain barrier, rats, read-out: CNS penetration",~0.39
same,"AUC(0-10), unbound, Brain",[1]; [4],2700 ± 740 ng·h/mL
same,"Cmax, unbound, Brain",[1]; [4],430 ± 63 ng/mL
same,AUC ratio Brain:Blood (unbound),[1]; [5],0.39 ± 0.03
same,"AUC(0-10), unbound, Blood",[1]; [5],6800 ± 2000 ng·h/mL
same,"AUC(0-10), unbound, Brain",[1]; [5],2700 ± 740 ng·h/mL
same,"Cmax, unbound, Blood",[1]; [5],1100 ± 82 ng/mL
same,"Cmax, unbound, Brain",[1]; [5],430.0 ± 63 ng/mL
same,Tmax,"[1]; blood (jugular vein) microdialysate, po, microdialysis, male CD-IGS rats, single p.o. 50 mg/kg, n = 3, read-out: Tmax, unbound, Blood",4.6 ± 2.4 h
same,Tmax,"[1]; brain (striatum) microdialysate, po, microdialysis, male CD-IGS rats, single p.o. 50 mg/kg, n = 3, read-out: Tmax, unbound, Brain",4.1 ± 1.5 h
same,Kp,"[1]; po, microdialysis, male CD-IGS rats, single p.o. 50 mg/kg, n = 3, read-out: AUC ratio Brain:Blood (unbound)",0.39 ± 0.03
same,"polarization status (FXIII A, pSTAT6 vs iNOS, pSTAT1 expression)",[2],from M2 to M1
same,"M2 polarization of microglia cells (FXIIIA, pSTAT6)",[3],reversed
same,"M2 polarization of microglia cells (FXIIIA, pSTAT6)",[3]; [6],M2 polarization was not seen
same,"polarization status of microglia cells (iNOS, pSTAT1)",[3],from M2 to M1
same,"polarization status of microglia cells (iNOS, pSTAT1)",[3]; [6],became M1-polarized
